In patent US20050009924A1 (priority 2003, published 2005):
Each block holds one compound with its values, some of them ahead of it.

Assays:
[1] = test system: human hepatoma G2 cells; test: Cytotoxicity assay (XTT colorimetric), Hep G2; format: cell-based; settings: Homo sapiens, HepG2; 48 h of drug exposure
[2] = test system: rat glioma C6 cells; test: Cytotoxicity assay (XTT colorimetric), C6 cells; format: cell-based; settings: Rattus norvegicus, C6; 48 h of drug exposure
[3] = test system: hepatitis B virus transfected hepatoma cell lines, HepG 2.2.15 cells; test: Cytotoxicity assay, 2.2.15 cells; format: cell-based, human; settings: Homo sapiens, HepG2.2.15; 48 h of drug exposure
[4] = test system: transcriptional activity of hTERT; test: SEAP reporter assay of hTERT expression, PhTERT-SEAP (hTERT-BJ1); format: cell-based, human
Method in brief: (§1)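 We treated G418-selected reporter cells with varying drug amounts for 24 h and measured SEAP in the heat-inactivated medium as the rate of 405 nm absorbance increase.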

[5] = test system: transcriptional activity of hTERT; test: SEAP reporter assay of hTERT expression, PhTERT-SEAP (H1299); format: cell-based, human
Method in brief: as §1

[6] = MTT relative viability, PhTERT-SEAP (H1299) cells; settings: human
[7] = MTT relative viability, PhTERT-SEAP (hTERT-BJ1) cells; settings: human
[8] = test system: iron-induced lipid peroxidation in rat brain homogenates; test: Iron-induced lipid peroxidation in rat brain homogenates; settings: 10 mM
[9] = hTERT-BJ1 cells, stable PhTERT-SEAP reporter clone
[10] = Homo sapiens, hTERT-BJ1, read-out: Relative SEAP activity (%)
[11] = Homo sapiens, NCI-H1299, hTERT-H1299, read-out: Relative SEAP activity (%)

Compound: O=C1c2ccccc2C(=O)c2c(NC(=O)[C@@H]3C[C@H]3c3ccccc3)ccc(NC(=O)[C@@H]3C[C@H]3c3ccccc3)c21 (relative stereo) [VI27, 1,4-Bis(trans-2-phenyl-1-cyclopropaneamido)-9,10-anthracenedione]
IC50 [1]: > 20 µM
IC50 [2]: > 20 µM
IC50 [3]: 19.5 µM
SEAP/vibility ([4]; 1.8 μM, PhTERT-SEAP (hTERT-BJ1)): 0.89
SEAP/vibility ([4]; 18 μM, PhTERT-SEAP (hTERT-BJ1)): 0.99
SEAP/vibility ([4]; 189 μM, PhTERT-SEAP (hTERT-BJ1)): 0.98
activity at 1.8 µM ([4]; Homo sapiens, 1.8 μM, PhTERT-SEAP (hTERT-BJ1), read-out: Relative SEAP activity (%)): 92 ± 16.9%
activity at 18 µM ([4]; Homo sapiens, 18 μM, PhTERT-SEAP (hTERT-BJ1), read-out: Relative SEAP activity (%)): 97 ± 18.2%
activity at 189 µM ([4]; Homo sapiens, 189 μM, PhTERT-SEAP (hTERT-BJ1), read-out: Relative SEAP activity (%)): 102 ± 16.6%
SEAP/vibility ([5]; 1.8 μM, PhTERT-SEAP(hTERT-H1299)): 0.94
SEAP/vibility ([5]; 18 μM, PhTERT-SEAP(hTERT-H1299)): 0.93
SEAP/vibility ([5]; 189 μM, PhTERT-SEAP(hTERT-H1299)): 0.92
activity at 1.8 µM ([5]; Homo sapiens, NCI-H1299, 1.8 μM, PhTERT-SEAP(hTERT-H1299), read-out: Relative SEAP activity (%)): 95 ± 7.7%
activity at 18 µM ([5]; Homo sapiens, NCI-H1299, 18 μM, PhTERT-SEAP(hTERT-H1299), read-out: Relative SEAP activity (%)): 93 ± 3.2%
activity at 189 µM ([5]; Homo sapiens, NCI-H1299, 189 μM, PhTERT-SEAP(hTERT-H1299), read-out: Relative SEAP activity (%)): 87 ± 3.6%
melting point: 272 to 274 °C
viability at 48 h, 1.8 µM [6]: 101 ± 2.4%
viability at 48 h, 18 µM [6]: 100 ± 4.7%
viability at 48 h, 189 µM [6]: 94 ± 3.5%
viability at 48 h, 1.8 µM [7, 9]: 92 ± 16.9%
viability at 48 h, 18 µM [7, 9]: 97 ± 18.2%
viability at 48 h, 189 µM [7, 9]: 104 ± 10.7%

melting point: 238 to 239 °C
Compound: O=C1c2cccc(SCCC(O)O)c2C(=O)c2cccc(SCCC(O)O)c21 [IId, 1,5-Bis(dihydroxypropylthio)-anthraquinone]

Compound: CCNc1cccc2c1C(=O)c1cccc(NCC)c1C2=O [IVa, 1,5-Bis(ethylamino)anthraquinone]
IC50 [1]: > 20 µM
IC50 [2]: > 20 µM
IC50 [3]: > 20 µM
activity at 3.3 µM ([4]; Homo sapiens, 3.3 μM, hTERT-BJ1, read-out: Relative SEAP activity (%)): 94 ± 17.4%
activity at 33 µM ([4]; Homo sapiens, 33 μM, hTERT-BJ1, read-out: Relative SEAP activity (%)): 96 ± 8.5%
activity at 339 µM ([4]; Homo sapiens, 339 μM, hTERT-BJ1, read-out: Relative SEAP activity (%)): 66 ± 11.8%
activity at 3.3 µM ([5]; Homo sapiens, NCI-H1299, 3.3 μM, hTERT-H1299, read-out: Relative SEAP activity (%)): 108 ± 6.3%
activity at 33 µM ([5]; Homo sapiens, NCI-H1299, 33 μM, hTERT-H1299, read-out: Relative SEAP activity (%)): 101 ± 6.8%
activity at 339 µM ([5]; Homo sapiens, NCI-H1299, 339 μM, hTERT-H1299, read-out: Relative SEAP activity (%)): 95 ± 11%
melting point: 193 to 195 °C
viability at 48 h, 3.3 µM [6]: 106 ± 7.4%
viability at 48 h, 33 µM [6]: 104 ± 3.7%
viability at 48 h, 339 µM [6]: 103 ± 6.4%
viability at 48 h, 3.3 µM [7]: 100 ± 4.8%
viability at 48 h, 33 µM [7]: 97 ± 1%
viability at 48 h, 339 µM ([7]; hTERT-BJ1 cells): 99 ± 3.2%

Compound: CC(C)Nc1cccc2c1C(=O)c1cccc(NC(C)C)c1C2=O [IVc, 1,5-Bis(isopropylamino)anthraquinone]
IC50 [1]: 7.64 ± 2.38 µM
IC50 [2]: > 20 µM
IC50 [3]: 19 µM
activity at 3.1 µM [4, 10]: 32 ± 18.3%
activity at 31 µM [4, 10]: 23 ± 20.5%
activity at 310 µM [4, 10]: -2%
activity at 3.1 µM [5, 11]: 94 ± 4.1%
activity at 31 µM [5, 11]: 93 ± 2%
activity at 310 µM [5, 11]: 66 ± 4.7%
melting point: 170 to 172 °C
viability at 48 h, 3.1 µM [6]: 114 ± 7.6%
viability at 48 h, 31 µM [6]: 111 ± 4.7%
viability at 48 h, 310 µM [6]: 50 ± 7.5%
viability at 48 h, 3.1 µM ([7]; hTERT-BJ1 cells): 101 ± 4.5%
viability at 48 h, 31 µM ([7]; hTERT-BJ1 cells): 93 ± 6.5%
viability at 48 h, 310 µM ([7]; hTERT-BJ1 cells): 98 ± 12.9%

Compound: CCCNc1cccc2c1C(=O)c1cccc(NCCC)c1C2=O [IVf, 1,5-Bis(propylamino)anthraquinone]
IC50 [1]: 1.74 ± 0.14 µM
IC50 [2]: 16 ± 0.68 µM
IC50 [3]: 1.94 µM
activity at 3.1 µM [4, 10]: 18 ± 16.7%
activity at 31 µM [4, 10]: 19 ± 24.6%
activity at 310 µM [4, 10]: -7%
activity at 3.1 µM [5, 11]: 101 ± 15.3%
activity at 31 µM [5, 11]: 100 ± 5.6%
activity at 310 µM [5, 11]: 89 ± 8.3%
melting point: 153 to 154 °C
viability at 48 h, 3.1 µM [6]: 99 ± 7.6%
viability at 48 h, 31 µM [6]: 98 ± 5.8%
viability at 48 h, 310 µM [6]: 46 ± 9.5%
viability at 48 h, 3.1 µM ([7]; hTERT-BJ1 cells): 97 ± 5.6%
viability at 48 h, 31 µM ([7]; hTERT-BJ1 cells): 93 ± 8.9%
viability at 48 h, 310 µM ([7]; hTERT-BJ1 cells): 42 ± 8.1%

Compound: CCCCNc1cccc2c1C(=O)c1cccc(NCCCC)c1C2=O [IVg, 1,5-Bis(butylamino)anthraquinone]
melting point: 152 to 153 °C

Compound: O=C1c2cccc(NC3CCCC3)c2C(=O)c2cccc(NC3CCCC3)c21 [IVi, 1,5-Bis(cyclopentylamino)anthraquinone]
melting point: 198 to 201 °C

melting point: 208 to 210 °C
Compound: NCCCCNc1cccc2c1C(=O)c1cccc(NCCCCN)c1C2=O [IVl, 1,5-Bis(aminobutylamino)-anthraquinone]

Compound: NCCCCCNc1cccc2c1C(=O)c1cccc(NCCCCCN)c1C2=O [IVm, 1,5-Bis(aminopentylamino)-anthraquinone]
IC50 [1]: 17.4 ± 0.74 µM
IC50 [2]: 8.36 µM
IC50 [3]: > 20 µM
melting point: 113 to 115 °C

melting point: 142 to 144 °C
Compound: CCCCCCNc1cccc2c1C(=O)c1cccc(NCCCCCC)c1C2=O [IVn, 1,5-Bis(hexylamino)-anthraquinone]

melting point: 188 to 190 °C
Compound: CC1CCCC(Nc2cccc3c2C(=O)c2cccc(NC4CCCC(C)C4C)c2C3=O)C1C (stereo not drawn) [IVp, 1,5-Bis(2,3-dimethylcyclohexylamino)-anthraquinone]

Compound: O=C1c2cccc(NCc3ccccc3)c2C(=O)c2cccc(NCc3ccccc3)c21 [IVr, 1,5-Bis(benzylamino)-anthraquinone]
IC50 [1]: > 20 µM
IC50 [2]: > 20 µM
IC50 [3]: > 20 µM
melting point: 218 to 220 °C

Compound: O=C1c2cccc(NCCc3ccccc3)c2C(=O)c2cccc(NCCc3ccccc3)c21 [IVs, 1,5-Bis(phenylethylamino)-anthraquinone]
IC50 [1]: > 20 µM
IC50 [2]: > 20 µM
IC50 [3]: > 20 µM
activity at 2.2 µM ([4]; Homo sapiens, 2.2 μM, hTERT-BJ1, read-out: Relative SEAP activity (%)): 115 ± 12.9%
activity at 22 µM ([4]; Homo sapiens, 22 μM, hTERT-BJ1, read-out: Relative SEAP activity (%)): 103 ± 12.3%
activity at 223 µM ([4]; Homo sapiens, 223 μM, hTERT-BJ1, read-out: Relative SEAP activity (%)): 133 ± 23.8%
activity at 2.2 µM ([5]; Homo sapiens, NCI-H1299, 2.2 μM, hTERT-H1299, read-out: Relative SEAP activity (%)): 105 ± 3%
activity at 22 µM ([5]; Homo sapiens, NCI-H1299, 22 μM, hTERT-H1299, read-out: Relative SEAP activity (%)): 103 ± 9.5%
activity at 223 µM ([5]; Homo sapiens, NCI-H1299, 223 μM, hTERT-H1299, read-out: Relative SEAP activity (%)): 96 ± 2.9%
melting point: 205 to 207 °C
viability at 48 h, 2.2 µM [6]: 94 ± 5.2%
viability at 48 h, 22 µM [6]: 97 ± 3.2%
viability at 48 h, 223 µM [6]: 77 ± 4.2%
viability at 48 h, 2.2 µM [7]: 97 ± 4%
viability at 48 h, 22 µM [7]: 92 ± 1%
viability at 48 h, 223 µM [7]: 81 ± 4.7%

Compound: O=C1c2c(O)ccc(O)c2C(=O)c2c(NCCNCCO)ccc(NCCNCCO)c21 [Mitoxantrone, reference compound]
IC50 [1]: 2 ± 0.5 µM
IC50 [2]: 0.07 ± 0.01 µM
IC50 [3]: 0.4 µM
activity at 1.9 µM ([4]; Homo sapiens, 1.9 μM, hTERT-BJ1, read-out: Relative SEAP activity (%)): 30 ± 5.8%
activity at 19 µM ([4]; Homo sapiens, 19 μM, hTERT-BJ1, read-out: Relative SEAP activity (%)): 13 ± 9.2%
activity at 193 µM ([4]; Homo sapiens, 193 μM, hTERT-BJ1, read-out: Relative SEAP activity (%)): 4 ± 14.2%
SEAP/vibility ([5]; 1.9 μM, PhTERT-SEAP(hTERT-H1299)): 0.82
SEAP/vibility ([5]; 19 μM, PhTERT-SEAP(hTERT-H1299)): 1.16
SEAP/vibility ([5]; 193 μM, PhTERT-SEAP(hTERT-H1299)): 1.21
activity at 1.9 µM ([5]; Homo sapiens, NCI-H1299, 1.9 μM, PhTERT-SEAP(hTERT-H1299), read-out: Relative SEAP activity (%)): 81 ± 3.8%
activity at 19 µM ([5]; Homo sapiens, NCI-H1299, 19 μM, PhTERT-SEAP(hTERT-H1299), read-out: Relative SEAP activity (%)): 66 ± 4%
activity at 193 µM ([5]; Homo sapiens, NCI-H1299, 193 μM, PhTERT-SEAP(hTERT-H1299), read-out: Relative SEAP activity (%)): 47 ± 3.9%
viability at 48 h, 1.9 µM [6]: 100 ± 5.6%
viability at 48 h, 19 µM [6]: 57 ± 4.3%
viability at 48 h, 193 µM [6]: 39 ± 3.2%
viability at 48 h, 1.9 µM [7]: 75 ± 2.9%
viability at 48 h, 19 µM [7]: 56 ± 3.1%
viability at 48 h, 193 µM [7]: 10 ± 2%
Inhibition of LP(10 mM) ([8]; mean percent inhibition (Table 3)): >100%
LP (%) (10 mM) ([8]; relative percentage of inhibition (Table 1)): 54 ± 1.5%

melting point: 321 °C
Compound: CCC(=O)Nc1cccc2c1C(=O)c1cccc(NC(=O)CC)c1C2=O [VIIb, 1,5-bis-(methylacetamido)-9,10-anthracenedione]

melting point: 288 to 289 °C
Compound: CC(Cl)C(=O)Nc1cccc2c1C(=O)c1cccc(NC(=O)C(C)Cl)c1C2=O (stereo not drawn) [VIId, 1,5-bis-(2-chloropropionamido)-9,10-anthracenedione]

Compound: NCCCCCNc1cccc2c1C(=O)c1c(NCCCCCN)cccc1C2=O [Vm, 1,8-Bis(aminopentylamino)-anthraquinone]
IC50 [1]: 0.09 µM
IC50 [2]: 0.11 ± 0.01 µM
IC50 [3]: 1.29 µM
melting point: 115 to 116 °C
